For test [1], the system named is HCT116. In words: efficacy (maximum % inhibition of viability vs DMSO); higher = more cytotoxic. To be noted: 72 h. In a few lines:
(§1)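 Luminescence was read with CellTiter-Glo in HCT116 cells seeded at 250 per well in 1536-well plates. Signals were scaled between vehicle at 0% and positive control at -100%, then pattern-corrected. IC50 and maximal efficacy were obtained by fitting a four-parameter Hill equation.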

Test [2] relates to HCT116. To be noted: 72 h. Summed up: as §1

Each structure is given as a SMILES string. Structures can show the parent of a compound that is named as a salt. Some results are limits rather than exact numbers.

The compound `CNCC[C@@H](Oc1ccccc1C)c1ccccc1` [Atomoxetine hydrochloride] showed an efficacy in the test with HCT116 [1] (ICRF193 200 nM) of 81.3%. In addition, the IC50 cell viability with HCT116 [2] (ICRF193 0 nM) was more than 45.8 µM; in the test on HCT116 [2] (ICRF193 200 nM), 29.1 µM.

On to `CC(C)c1c(C(=O)Nc2ccccc2)c(-c2ccccc2)c(-c2ccc(F)cc2)n1CC[C@@H](O)C[C@@H](O)CC(=O)O` [Atorvastatin calcium], for which the efficacy in the test with HCT116 [1] (ICRF193 0 nM) amounted to 60.2%; in the test with HCT116 [1] (ICRF193 200 nM), 70.6%. The IC50 cell viability with HCT116 [2] (ICRF193 0 nM) and with HCT116 [2] (ICRF193 200 nM) was 18.3 µM in each case.

In turn, `O=C1C(O)=C([C@H]2CC[C@H](c3ccc(Cl)cc3)CC2)C(=O)c2ccccc21` [Atovaquone] registered an efficacy in the test with HCT116 [1] (ICRF193 200 nM) of 54.1%. Besides, the IC50 cell viability with HCT116 [2] (ICRF193 0 nM) was more than 45.8 µM; in the test with HCT116 [2] (ICRF193 200 nM), 18.3 µM.

`CC(=O)OC[C@H]1O[C@@H]([S-])[C@H](OC(C)=O)[C@@H](OC(C)=O)[C@@H]1OC(C)=O.CCP(CC)CC.[Au+]` [Auranofin]: the values for the efficacy in the test with HCT116 [1] (ICRF193 0 nM) and with HCT116 [1] (ICRF193 200 nM) were 102% and 96.8%, respectively. Moreover, the IC50 cell viability in the test with HCT116 [2] (ICRF193 0 nM) and with HCT116 [2] (ICRF193 200 nM) was 2.59 µM throughout.

In the test on HCT116 [1] (ICRF193 200 nM), `CC[C@H](C)[C@@H]([C@@H](CC(=O)N1CCC[C@H]1[C@H](OC)[C@@H](C)C(=O)NCCc1ccccc1)OC)N(C)C(=O)[C@@H](NC(=O)[C@H](C(C)C)N(C)C)C(C)C` [Auristatin PE] showed an efficacy of 42.4%. The values for the IC50 cell viability with HCT116 [2] (ICRF193 0 nM) and in the test with HCT116 [2] (ICRF193 200 nM) were more than 45.8 µM and 0.00461 µM, respectively.

As to `CCC(C)C1O[C@]2(C=C[C@@H]1C)C[C@@H]1CC(C/C=C(\C)[C@@H](OC3C[C@H](OC)[C@@H](OC4C[C@H](OC)[C@@H](O)[C@H](C)O4)[C@H](C)O3)[C@@H](C)/C=C/C=C3\COC4[C@H](O)C(C)=CC(C(=O)O1)[C@]34O)O2` (stereo partly drawn) [Avermectin B1a], the efficacy in the test on HCT116 [1] (ICRF193 0 nM) worked out at 92.3%. For the same compound, the IC50 cell viability in the test on HCT116 [2] (ICRF193 0 nM) is 8.2 µM; in the test on HCT116 [2] (ICRF193 200 nM), more than 45.8 µM.

On to `CNC(=O)c1ccccc1Sc1ccc2c(/C=C/c3ccccn3)n[nH]c2c1` [Axitinib], for which the efficacy in the test on HCT116 [1] (ICRF193 0 nM) was 57.5%; in the test with HCT116 [1] (ICRF193 200 nM) it was 62.1%. The IC50 cell viability with HCT116 [2] (ICRF193 0 nM) amounted to 23.1 µM; with HCT116 [2] (ICRF193 200 nM), 20.6 µM.

In turn, `O=C(CCCN1CCN(c2ccccn2)CC1)c1ccc(F)cc1` [Azaperone] showed an efficacy in the test on HCT116 [1] (ICRF193 200 nM) of 87.6%. The IC50 cell viability in the test with HCT116 [2] (ICRF193 0 nM) was more than 45.8 µM; with HCT116 [2] (ICRF193 200 nM) it was 0.206 µM.

As for `Cn1cnc([N+](=O)[O-])c1Sc1ncnc2[nH]cnc12` [Azathioprine], the efficacy in the test with HCT116 [1] (ICRF193 0 nM) worked out at 77.4%; with HCT116 [1] (ICRF193 200 nM), 85.9%. Further, the figures for the IC50 cell viability in the test on HCT116 [2] (ICRF193 0 nM) and in the test on HCT116 [2] (ICRF193 200 nM) were 2.91 µM and 3.66 µM, respectively.

With `CN1CCCC(n2nc(Cc3ccc(Cl)cc3)c3ccccc3c2=O)CC1` (stereo not drawn) [Azelastine hydrochloride], the efficacy in the test with HCT116 [1] (ICRF193 200 nM) stood at 65.4%. Further, the IC50 cell viability in the test on HCT116 [2] (ICRF193 0 nM) was more than 45.8 µM; in the test on HCT116 [2] (ICRF193 200 nM) it was 29.1 µM.

Take `CC1=C(C(=O)OC(C)C)C(c2cccc([N+](=O)[O-])c2)C(C(=O)OC2CN(C(c3ccccc3)c3ccccc3)C2)=C(N)N1` (stereo not drawn) [Azelnidipine]: the efficacy in the test on HCT116 [1] (ICRF193 0 nM) came to 124%; in the test with HCT116 [1] (ICRF193 200 nM), 98%. In addition, the IC50 cell viability with HCT116 [2] (ICRF193 0 nM) was 23.1 µM; with HCT116 [2] (ICRF193 200 nM), 18.3 µM.

For `CC[C@H]1OC(=O)[C@H](C)[C@@H](O[C@H]2C[C@@](C)(OC)[C@@H](O)[C@H](C)O2)[C@H](C)[C@@H](O[C@@H]2O[C@H](C)C[C@H](N(C)C)[C@H]2O)[C@](C)(O)C[C@@H](C)CN(C)[C@H](C)[C@@H](O)[C@]1(C)O` [Azithromycin], in the test on HCT116 [1] (ICRF193 200 nM), the efficacy amounted to 68.7%. For the same compound, the IC50 cell viability was more than 45.8 µM in the test with HCT116 [2] (ICRF193 0 nM) and 20.6 µM in the test on HCT116 [2] (ICRF193 200 nM).

On to `CCCCCCCCCCCCC[N+](C)(C)Cc1ccccc1` [BENZALKONIUM CHLORIDE], for which the efficacy with HCT116 [1] (ICRF193 0 nM) was 133%; in the test on HCT116 [1] (ICRF193 200 nM), 124%. Also, the values for the IC50 cell viability in the test on HCT116 [2] (ICRF193 0 nM) and in the test on HCT116 [2] (ICRF193 200 nM) were 20.6 µM and 23.1 µM, respectively.

As to `CC(C)C[C@H]1C(=O)N2CCC[C@H]2[C@]2(O)O[C@](NC(=O)[C@@H]3C=C4c5cccc6[nH]c(Br)c(c56)C[C@H]4N(C)C3)(C(C)C)C(=O)N12` [BROMOCRIPTINE], the efficacy with HCT116 [1] (ICRF193 200 nM) is 43.2%. Besides, the IC50 cell viability is more than 45.8 µM in the test with HCT116 [2] (ICRF193 0 nM) and 18.3 µM in the test on HCT116 [2] (ICRF193 200 nM).

In the case of `CCCC(=O)Nc1ncnc2c1ncn2[C@@H]1O[C@@H]2COP(=O)(O)O[C@H]2[C@H]1OC(=O)CCC` [BUCLADESINE], the efficacy in the test on HCT116 [1] (ICRF193 0 nM) turned out to be 48.8%. Besides, the IC50 cell viability in the test on HCT116 [2] (ICRF193 0 nM) was 25.9 µM; in the test with HCT116 [2] (ICRF193 200 nM), more than 45.8 µM.

`Cc1c(-c2ccc(O)cc2)n(Cc2ccc(OCCN3CCCCCC3)cc2)c2ccc(O)cc12` [Bazedoxifene] yielded an efficacy in the test with HCT116 [1] (ICRF193 200 nM) of 47.4%. The IC50 cell viability in the test with HCT116 [2] (ICRF193 0 nM) is more than 45.8 µM; in the test with HCT116 [2] (ICRF193 200 nM), 23.1 µM.

Regarding `C[C@H]1C[C@H]2[C@@H]3CCC4=CC(=O)C=C[C@]4(C)[C@@]3(Cl)[C@@H](O)C[C@]2(C)[C@@]1(O)C(=O)CO` [Beclomethasone], the efficacy in the test with HCT116 [1] (ICRF193 0 nM) came out at 84.6%; with HCT116 [1] (ICRF193 200 nM), 86.6%. The values for the IC50 cell viability in the test on HCT116 [2] (ICRF193 0 nM) and in the test on HCT116 [2] (ICRF193 200 nM) were 23.1 µM and 20.6 µM, respectively.
